From patent US20240216344A1, “THIAZOLIDINEDIONE ANALOGS FOR THE TREATMENT OF NAFLD AND METABOLIC DISEASES” (Cirius Therapeutics, Inc., priority 2019, published 2024)

Tests used:
[1] = tested on: patients with biopsy-confirmed NASH; assay: EMMINENCE post hoc multivariable models and canonical correlation of biomarker changes with histological changes; set-up: species or system human
From the text: EMMINENCE was a phase 2 study examining the effects of three doses of MSDC-0602K versus placebo on liver histology in 392 patients with biopsy-confirmed nonalcoholic steatohepatitis (NASH). Patients provided written informed consent, and the protocol and consent form were approved by applicable institutional review boards. Baseline and 12-month biopsies were scored by a single expert hepatopathologist using the NASH Clinical Research Network (CRN) scoring criteria. Fasting blood samples for routine clinical chemistry as well as frozen samples for biomarker assays were analyzed centrally. In this post hoc analysis, multivariable models and partial canonical correlation were used to examine the associations between changes in biomarkers and changes in histological scores from baseline to 12 months in the 339 patients with paired biopsies. The trial was registered on ClinicalTrials.gov (NCT02784444).
Individual patient data from the 339 subjects with paired biopsy results in EMMINENCE were used to construct univariable and multivariable ANCOVA models for the 12-month change in each histological component (steatosis, inflammation, ballooning, and fibrosis). Candidate predictors included age, sex, type 2 diabetes (T2D) history, and baseline and 12-month changes in weight and laboratory parameters (liver injury markers, cholesterols, insulin sensitivity markers, ELF, CK-18). Non-linearity of the association between each continuous predictor and each outcome was examined by assessing the significance of the non-linear components of a restricted cubic spline transformation for each predictor. Appropriate transformations (quadratic, cubic, linear spline, log 2) were applied where deemed necessary based on review of the Akaike's Information Criterion and visual examination of plots of the predicted outcomes against each predictor. Due to issues with estimating the associations when severe multicollinearity exists between predictors in the model, ALT (collinear with AST) and waist circumference (collinear with weight) were excluded as candidate predictors. Multiple imputation with ten imputed datasets and assuming multivariate normality was used to handle missing values. The occurrence of missing data for any of the predictors was relatively low ([…] missing one or more predictor values). Rubin's algorithm was used for average estimates for predictors across the imputed datasets. Backwards selection was used for each outcome, with predictors remaining in a majority of the ten imputed datasets at the 0.05 significance level (>5) included in the final model. Each model was adjusted for the baseline value of the outcome. If a change from baseline predictor was included in the final model, then the baseline value for the parameter was also included in the final model.
A second multivariable model was fit for each outcome including the predictors found prognostic for any of the biopsy component changes. A multivariable ANCOVA model that included these predictors was run for NAS (the sum of ballooning, inflammation, and steatosis scores). Multivariable logistic regression models that included these predictors were also run for the binary outcomes of NASH resolution without worsening of fibrosis and fibrosis improvement without worsening of NASH.
A partial canonical correlation using individual patient data from EMMINENCE examined the correlation of changes in weight, AST, HbA1c, GGT, CK-18 (taken together) with changes in ballooning, inflammation, steatosis, and fibrosis (taken together) adjusted for those baseline variables prognostic of any of the histological feature changes in the multivariable models in the 306 subjects with complete observed data for the variables involved. This analysis results in “canonical variates” that are linear combinations of the original sets of variables weighted in such a way as to maximize the correlation between them. […]

[2] = tested on: cell functions and key regulatory proteins; assay: Impact of MSDC-0602K vs overnutrition on cell functions and key regulatory proteins (Table 1)
[3] = tested on: subjects with biopsy proven NASH with fibrosis and no cirrhosis; assay: EMMINENCE Phase 2b trial, interim analysis at six months; format: in vivo, human; settings: for Peripheral edema present: 6 months
From the text: Detailed Description: This is a randomized, double-blinded study of three doses of MSDC-0602K or placebo given orally once daily to subjects with biopsy proven NASH with fibrosis and no cirrhosis. Visits to the clinic will be at baseline, 1, 2, 3, 6, 9, and 12 months, with one 2-week follow-up visit. Safety will be assessed by monitoring of vital signs, 12 lead electrocardiogram (ECG), physical examinations, safety labs, and adverse events (AEs).
An interim analysis of the EMMINENCE Phase 2b trial was conducted in the first 328 subjects who reached their six-month follow-up visit. […] In the two highest dose groups, at least 50% of patients with elevated baseline Alanine transaminase (ALT) or Aspartate Aminotransferase (AST) improved into the normal range at six months, as shown in Table 3.
The subjects included in this interim analysis had significant liver disease, as established by liver biopsy, with an average NAS at baseline of 5.3. […] Overall, baseline characteristics were well-balanced across treatment groups.

[4] = effect size for a change of 20 in MSDC-0602K Dose, multivariable model with dose added
[5] = effect size for a change of 20 in MSDC-0602K Dose, univariable model

## COc1cccc(C(=O)COc2ccc(CC3SC(=O)NC3=O)cc2)c1 (stereo not drawn) [MSDC-0602K]
[1]; MSDC-0602K Dose, multivariable model with dose added, size of change not given
  Effect Size, change from baseline in steatosis, Multivariable Model: −0.03
[1]; Multivariable model
  Effect Size for a change of 20 in MSDC-0602K Dose; outcome change from baseline in fibrosis: −0.01
  Effect Size for change of 20 in MSDC-0602K Dose; outcome NAS: −0.03
[1]; Univariable Model
  Effect Size for a change of 20 in MSDC-0602K Dose; outcome change from baseline in fibrosis: −0.02
[1]; [4]
  Effect Size, change from baseline in ballooning, Multivariable Model: −0.02
  Effect Size, change from baseline in inflammation, Multivariable Model: 0.01
[1]; [5]
  Effect Size, change from baseline in ballooning, Univariable Model: −0.01
  Effect Size, change from baseline in inflammation, Univariable Model: −0.01
  Effect Size, change from baseline in steatosis, Univariable Model: −0.03
[2]
  Fatty acid oxidation (burning fat): Increased
  HIF1α: Decreased
  Inflammation (ballooning due to injury): Decreased
  Insulin sensitivity (cellular response to insulin): Increased
  PPARγ, PPARα: Increased
  SREBP: Decreased
  de novo lipid synthesis (making new fat): Decreased
  mTORC1: Decreased
[3]; 62.5 mg
  Peripheral edema present: 7.80%
[3]; 62.5 mg, six months
  Percentage of patients with high baseline ALT who returned to normal range: 29%
  Percentage of patients with high baseline AST who returned to normal range: 36%
[3]; 125 mg cohort, six months
  Placebo-corrected reduction in ALT: 14.3 U/L
  Placebo-corrected reduction in AST: 7.9 U/L
[3]; 125 mg
  Peripheral edema present: 13.50%
[3]; 125 mg, six months
  Percentage of patients with high baseline ALT who returned to normal range: 60%
  Percentage of patients with high baseline AST who returned to normal range: 50%
[3]; 250 mg cohort, six months
  Placebo-corrected reduction in ALT: 10.6 U/L
[3]; 250 mg cohort, six months, not significant
  Placebo-corrected reduction in AST: 4 U/L
[3]; 250 mg
  Peripheral edema present: 11.10%
[3]; 250 mg, six months
  Percentage of patients with high baseline ALT who returned to normal range: 56%
  Percentage of patients with high baseline AST who returned to normal range: 52%
[3]; all subjects, 125 mg and 250 mg doses, six months
  fasting glucose, HbA1c, insulin levels, and HOMA-IR: statistically significant improvements
[3]; all treatment cohorts, dose dependent, six months
  Adiponectin: increased significantly
[3]; placebo and all doses
  overall adverse event rates: similar
[3]; six months
  effect on lipids: neutral effect
[3]; two highest dose groups, six months
  patients with elevated baseline ALT or AST improved into the normal range: at least 50%
[3]; two lowest doses, six months
  C-Reactive Protein levels: decrease
